# In patent US10689331B2, “IDO inhibitors” (Bristol-Myers Squibb Company, priority 2015, dated 2020):
# pIC50: −log10 of the molar value. Counter-ions that a name gives are not always drawn.
# Biological target: T1, human IDO1 (Homo sapiens, UniProt P14902)
# T1 construct: expressed in transfected cells
# Test: HEK Human IDO-1 inhibition assay (kynurenine readout, Ehrlich reagent, absorbance 490 nm)
# Format: cell-based
# Details: human IDO1/HEK293 cells, incubated 20 hours with compound; 500 nM reference standard = 100% inhibition
# Experimental: HEK293 cells were transfected with a pCDNA-based mammalian expression vector harboring human IDO1 cDNA (NM 002164.2) by electroporation. They were cultured in medium (DMEM with 10% FBS) containing 1 mg/ml G418 for two weeks. Clones of HEK293 cells that stably expressed human IDO1 protein were selected and expanded for IDO inhibition assay.
# The human IDO1/HEK293 cells were seeded at 10,000 cells per 50 uL per well with RPMI/phenol red free media contains 10% FBS in a 384-well black wall clear bottom tissue culture plate (Matrix Technologies LLC) 100 nL of certain concentration of compound was then added to each well using ECHO liquid handling systems. The cells were incubated for 20 hours in 37° C. incubator with 5% CO2.
# The compound treatments were stopped by adding Trichloroacetic Acid (Sigma-Aldrich) to a final concentration at 0.2%. The cell plate was further incubated at 50° C. for 30 minute. The equal volume supernatant (20 uL) and 0.2% (w/v) Ehrlich reagent (4-dimethylaminobenzaldehyde, Sigma-Aldrich) in glacial acetic acid were mixed in a new clear bottom 384-well plate. This plate was then incubated at room temperature for 30 minute. The absorbance at 490 nm was measured on Envision plate reader. Compound IC50 values were calculated using the counts of 500 nM of a reference standard treatment as one hundred percent inhibition, and counts of no compound but DMSO treatment as zero percent inhibition.
# T1 sequence (P14902 whole entry): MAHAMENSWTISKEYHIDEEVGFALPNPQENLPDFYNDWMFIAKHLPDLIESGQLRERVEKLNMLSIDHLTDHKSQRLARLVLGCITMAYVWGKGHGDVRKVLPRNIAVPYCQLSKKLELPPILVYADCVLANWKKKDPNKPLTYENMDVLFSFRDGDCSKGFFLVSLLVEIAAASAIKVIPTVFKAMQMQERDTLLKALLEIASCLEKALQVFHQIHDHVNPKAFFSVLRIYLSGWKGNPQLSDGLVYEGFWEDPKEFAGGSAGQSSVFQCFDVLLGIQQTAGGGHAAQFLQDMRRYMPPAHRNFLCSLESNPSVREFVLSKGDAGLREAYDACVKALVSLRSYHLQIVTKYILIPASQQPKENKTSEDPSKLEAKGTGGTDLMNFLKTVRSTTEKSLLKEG
row,Compound,pIC50
1,"CCC(Oc1ccc(N(CC(C)C)C2CCCCC2)c(NC(=O)Nc2ccccc2F)c1)C(=O)O (single isomer, unassigned) [Example 81-1, 2-(4-(cyclohexyl(isobutyl)amino)-3-(3-(2-fluorophenyl)ureido)phenoxy)butanoic acid]",> 8.30
2,"CCC(Oc1ccc(N(CC(C)C)C2CCCCC2)c(NC(=O)Nc2ccc(C)cc2)c1)C(=O)O (single isomer, unassigned) [Example 82-2, 2-(4-(cyclohexyl(isobutyl)amino)-3-(3-(p-tolyl)ureido)phenoxy)butanoic acid]",> 7.00
3,"CCCC(Oc1ccc(N(CC(C)C)C2CCCCC2)c(NC(=O)Nc2ccc(Cl)cc2F)c1)C(=O)O (single isomer, unassigned) [Example 85-2, 2-(3-(3-(4-chloro-2-fluorophenyl)ureido)-4-(cyclohexyl(isobutyl)amino)phenoxy)pentanoic acid]",> 8.30
4,"CCCC(Oc1ccc(N(CC(C)C)C2CCCCC2)c(NC(=O)Nc2ccc(C)cc2)c1)C(=O)O (single isomer, unassigned) [Example 86-1, 2-(4-(cyclohexyl(isobutyl)amino)-3-(3-(p-tolyl)ureido)phenoxy)pentanoic acid]",> 7.00
5,"CCCC(Oc1ccc(N(CC(C)C)C2CCCCC2)c(NC(=O)Nc2ccccc2F)c1)C(=O)O (single isomer, unassigned) [Example 87-1, 2-(4-(cyclohexyl(isobutyl)amino)-3-(3-(2-fluorophenyl)ureido)phenoxy)pentanoic acid]",> 8.30
6,"CCCC(Oc1ccc(N(CC(C)C)C2CCCCC2)c(NC(=O)Nc2ccccc2F)c1)C(=O)O (single isomer, unassigned) [Example 87-2, 2-(4-(cyclohexyl(isobutyl)amino)-3-(3-(2-fluorophenyl)ureido)phenoxy)pentanoic acid]",> 8.30
7,"CCCC(Oc1ccc(N(CC(C)C)C2CCCCC2)c(NC(=O)Nc2cncnc2)c1)C(=O)O (single isomer, unassigned) [Example 88-1, 2-(4-(cyclohexyl(isobutyl)amino)-3-(3-(pyrimidin-5-yl)ureido)phenoxy)pentanoic acid]",≤ 7.00
8,"CCCC(Oc1ccc(N(CC(C)C)C2CCCCC2)c(NC(=O)Nc2cncnc2)c1)C(=O)O (single isomer, unassigned) [Example 88-2, 2-(4-(cyclohexyl(isobutyl)amino)-3-(3-(pyrimidin-5-yl)ureido)phenoxy)pentanoic acid]",> 7.00
9,"COCC(Oc1ccc(N(CC(C)C)C2CCCCC2)c(NC(=O)Nc2ccc(Cl)cc2F)c1)C(=O)O (single isomer, unassigned) [Example 89-1, 2-(3-(3-(4-chloro-2-fluorophenyl)ureido)-4-(cyclohexyl(isobutyl)amino)phenoxy)-3-methoxypropanoic acid]",> 8.30
10,"C=C(C)CN(c1ccc(OC(C)C(=O)O)cc1NC(=O)Nc1ccc(Cl)cc1F)C1CCOCC1 (single isomer, unassigned) [Example 139-1, 2-(3-(3-(4-chloro-2-fluorophenyl)ureido)-4-((2-methylallyl)(tetrahydro-2H-pyran-4-yl)amino)phenoxy)propanoic acid]",> 7.00
11,"C=C(C)CN(c1ccc(OC(C)C(=O)O)cc1NC(=O)Nc1ccc(Cl)cc1F)C1CCOCC1 (single isomer, unassigned) [Example 139-2, 2-(3-(3-(4-chloro-2-fluorophenyl)ureido)-4-((2-methylallyl)(tetrahydro-2H-pyran-4-yl)amino)phenoxy)propanoic acid]",> 8.30
12,"CCC(Oc1ccc(N(CC(C)C)C2CCOCC2)c(NC(=O)Nc2ccc(Cl)cc2F)c1)C(=O)O (single isomer, unassigned) [Example 143-1, 2-(3-(3-(4-chloro-2-fluorophenyl)ureido)-4-(isobutyl(tetrahydro-2H-pyran-4-yl)amino)phenoxy)butanoic acid]",> 7.00
13,"CC(C)CN(c1ccc(OC(C)C(=O)O)cc1NC(=O)Nc1ccc(Cl)cc1F)C1CCOC1 (single isomer, unassigned) [Example 146-1, 2-(3-(3-(4-chloro-2-fluorophenyl)ureido)-4-(isobutyl(tetrahydrofuran-3-yl)amino)phenoxy)propanoic acid]",≤ 7.00
14,"CC(C)CN(c1ccc(OCC(=O)O)cc1NC(=O)Nc1cncnc1)C1CCCCC1 [Example 2, 2-(4-(cyclohexyl(isobutyl)amino)-3-(3-(pyrimidin-5-yl)ureido)phenoxy)acetic acid]",≤ 7.00

# Next, values leading:
row,pIC50,Compound
1,> 7.00,"CCOC(=O)C(C)Oc1ccc(N(CC(C)C)C2CCCCC2)c(NC(=O)Nc2ccc(Cl)cc2F)c1 (single isomer, unassigned) [Example 67-1, ethyl 2-(3-(3-(4-chloro-2-fluorophenyl)ureido)-4-(cyclohexyl(isobutyl)amino)phenoxy)propanoate]"
2,> 8.30,"CCOC(=O)C(C)Oc1ccc(N(CC(C)C)C2CCCCC2)c(NC(=O)Nc2ccc(Cl)cc2F)c1 (single isomer, unassigned) [Example 67-2, ethyl 2-(3-(3-(4-chloro-2-fluorophenyl)ureido)-4-(cyclohexyl(isobutyl)amino)phenoxy)propanoate]"
3,> 8.30,"CCC(Oc1ccc(N(CC(C)C)C2CCCCC2)c(NC(=O)Nc2ccc(Cl)cc2F)c1)C(=O)O (single isomer, unassigned) [Example 80-1, 2-(3-(3-(4-chloro-2-fluorophenyl)ureido)-4-(cyclohexyl(isobutyl)amino)phenoxy)butanoic acid]"
4,> 8.30,"CCC(Oc1ccc(N(CC(C)C)C2CCCCC2)c(NC(=O)Nc2ccc(Cl)cc2F)c1)C(=O)O (single isomer, unassigned) [Example 80-2, 2-(3-(3-(4-chloro-2-fluorophenyl)ureido)-4-(cyclohexyl(isobutyl)amino)phenoxy)butanoic acid]"
5,> 8.30,"CCC(Oc1ccc(N(CC(C)C)C2CCCCC2)c(NC(=O)Nc2ccccc2F)c1)C(=O)O (single isomer, unassigned) [Example 81-2, 2-(4-(cyclohexyl(isobutyl)amino)-3-(3-(2-fluorophenyl)ureido)phenoxy)butanoic acid]"
6,> 8.30,"CCC(Oc1ccc(N(CC(C)C)C2CCCCC2)c(NC(=O)Nc2ccc(C)cc2)c1)C(=O)O (single isomer, unassigned) [Example 82-1, 2-(4-(cyclohexyl(isobutyl)amino)-3-(3-(p-tolyl)ureido)phenoxy)butanoic acid]"
7,> 8.30,"CCCC(Oc1ccc(N(CC(C)C)C2CCCCC2)c(NC(=O)Nc2ccc(Cl)cc2F)c1)C(=O)O (single isomer, unassigned) [Example 85-1, 2-(3-(3-(4-chloro-2-fluorophenyl)ureido)-4-(cyclohexyl(isobutyl)amino)phenoxy)pentanoic acid]"
8,> 8.30,"CCCC(Oc1ccc(N(CC(C)C)C2CCCCC2)c(NC(=O)Nc2ccc(C)cc2)c1)C(=O)O (single isomer, unassigned) [Example 86-2, 2-(4-(cyclohexyl(isobutyl)amino)-3-(3-(p-tolyl)ureido)phenoxy)pentanoic acid]"
9,> 7.00,"COCC(Oc1ccc(N(CC(C)C)C2CCCCC2)c(NC(=O)Nc2ccc(Cl)cc2F)c1)C(=O)O (single isomer, unassigned) [Example 89-2, 2-(3-(3-(4-chloro-2-fluorophenyl)ureido)-4-(cyclohexyl(isobutyl)amino)phenoxy)-3-methoxypropanoic acid]"
10,≤ 7.00,"COCC(Oc1ccc(N(CC(C)C)C2CCCCC2)c(NC(=O)Nc2ccc(C)cc2)c1)C(=O)O (single isomer, unassigned) [Example 90-1, 2-(4-(cyclohexyl(isobutyl)amino)-3-(3-(p-tolyl)ureido)phenoxy)-3-methoxypropanoic acid]"
11,> 7.00,"COCC(Oc1ccc(N(CC(C)C)C2CCCCC2)c(NC(=O)Nc2ccc(C)cc2)c1)C(=O)O (single isomer, unassigned) [Example 90-2, 2-(4-(cyclohexyl(isobutyl)amino)-3-(3-(p-tolyl)ureido)phenoxy)-3-methoxypropanoic acid]"
12,> 8.30,"CC(C)CN(c1cc(F)c(OC(C)C(=O)O)cc1NC(=O)Nc1ccc(Cl)cc1F)C1CCCCC1 (single isomer, unassigned) [Example 136-1, 2-(5-(3-(4-chloro-2-fluorophenyl)ureido)-4-(cyclohexyl(isobutyl)amino)-2-fluorophenoxy)propanoic acid.TFA]"
13,> 8.30,"CCC(Oc1ccc(N(CC(C)C)C2CCOCC2)c(NC(=O)Nc2ccc(Cl)cc2F)c1)C(=O)O (single isomer, unassigned) [Example 143-2, 2-(3-(3-(4-chloro-2-fluorophenyl)ureido)-4-(isobutyl(tetrahydro-2H-pyran-4-yl)amino)phenoxy)butanoic acid]"
14,> 7.00,"CC(C)CN(c1ccc(OC(C)C(=O)O)cc1NC(=O)Nc1ccc(Cl)cc1F)C1CCOC1 (single isomer, unassigned) [Example 146-2, 2-(3-(3-(4-chloro-2-fluorophenyl)ureido)-4-(isobutyl(tetrahydrofuran-3-yl)amino)phenoxy)propanoic acid]"
15,> 8.30,"CC(C)CN(c1ccc(OCC(=O)O)cc1NC(=O)Nc1ccc(Cl)cc1F)C1CCCCC1 [Example 1, 2-(3-(3-(4-chloro-2-fluorophenyl)ureido)-4-(cyclohexyl(isobutyl)amino)phenoxy)acetic acid]"
